Results reported in the NIST ThermoML archive (doi:10.1016/j.jct.2009.08.009).
± gives the expanded uncertainty stated by the source.

Assay: xn = mol fraction of the nth substance listed
Conditions: 101 kPa, Liquid, Capillary tube (Ostwald / Ubbelohde) method, x2 = 0

Compound	viscosity (293.15 K) [mPa·s]	viscosity (298.15 K) [mPa·s]	viscosity (303.15 K) [mPa·s]	viscosity (308.15 K) [mPa·s]
CCCCCCO [hexan-1-ol] + CCOCCOCCO	4.963 ± 0.03	4.439 ± 0.027	3.675 ± 0.022	3.108 ± 0.019
CCCCCCCCO [octan-1-ol] + CCOCCOCCO	8.309 ± 0.045	7.143 ± 0.04	5.969 ± 0.035	5.009 ± 0.03
